“And” between values parts separate entries of the source, which are not always exact repeats. Equal entries are not always repeated.

Assay [1] concerns Human platelets. Kind of assay: TXB2 production by platelets pretreated 1 hour with fatty acid/HSA. In kind it is cell-based. How it is done: (§1) The following example illustrates the effect of CLA incorporation into platelet lipids on stimulating the release of endogenous AA and increasing the formation of TXB2. Platelets were prelabeled with either HSA alone or with 25 μM 9Z, 11Z-CLA/HSA for 1 hour at 37° C. After washing, the platelets were incubated for 15 minutes at room temperature, followed by the removal of the supernatants. The supernatants were then assayed for free […] content and TXB2 production. […] When the results of these three experiments are averaged, platelets treated with 9Z, 11Z-CLA stimulated […] release 414±155% and enhanced TXB2 formation 180±30%.
To compare the stimulatory effect of 9Z, 11Z-CLA on platelet TXB2 formation with other fatty acids, platelets were pretreated for 1 hour with HSA (control), or HSA complexed with either 9Z, 11Z-CLA, 9E,11E-CLA, linoleic acid (LA) or stearic acid (SA). The comparative effects of 25 μM 9Z, 11Z-CLA-, 9E, 11E-CLA-, LA- or SA-treated platelets on platelet TXB2 production is shown is FIG. 1. The values are the mean ±SD.

The test system of assay [2] is Human platelets. The assay is described as follows: Release of endogenous AA from platelets prelabeled with CLA/HSA. In kind it is cell-based. On the procedure: as §1
The test system of assay [3] is Human platelets. Kind of assay: TXB2 formation by platelets treated 2 hours with CLA isomer/HSA. It counts as cell-based. Particulars: 25 μM, 2 hours at 37° C.; for TXB2 formation Fold stimulation: mean ± SD, 4 experiments. On the procedure: Human platelets were treated for 2 hours at 37° C. with either HSA complexed with 25 μM of the indicated CLA isomer or with HSA alone. After washing, the platelets were maintained at room temperature for 15 minutes. The supernatants were then removed, the lipid content extracted with chloroform/methanol and the residue, after TLC separation, assayed for TXB2 formation by EIA. The results shown in Table 2 were similar to those obtained with CLA-prelabeled HUVECs. […] Also shown in Table 2 is that the CLA content of the platelet lipids increased from 0.03% to 0.23% after platelet treatment with 9Z, 11Z-CLA/HSA and to 0.66% after 10E, 12Z-CLA/HSA.

For assay [4], the system named is IL-1β-treated HUVECs. Kind of assay: 6-ketoPGF1a production from CLA-prelabeled HUVECs. In kind it is cell-based, human. Particulars: 25 μM; for HUVEC 6-ketoPGF1a formation fold-stimulation: overnight prelabeling, 15 minutes incubation, mean ± SD, 4 experiments; for range of fold increase in endogenous 6-ketoPGF1a formation: range over four separate experiments. On the procedure:
(§2) The following example illustrates the effect of CLA incorporation on 6-ketoPGF1a production from CLA-enriched HUVECs. Following the procedure described by Bordet (1990), IL-1β-treated HUVECs were first pre-enriched during an overnight incubation with human serum albumin (HSA) complexed with either 25 […] 9Z, 11Z-CLA/HSA, 25 μM 10E, 12Z-CLA/HSA or without added fatty acid (control). […] Insignificant differences in cell viabilities (as measured by LDH release) were observed between control cells and cells pretreated with HSA/CLA. After washing, the cells were incubated for 15 minutes, followed by removal of the supernatants, which were then assayed for 6-ketoPGF1a content by EIA. In four separate experiments, control HUVECs produced and released 42-1000 pg/ml of 6-ketoPGF1a.

For assay [5], the system named is human umbilical vein endothelial cells (HUVECs). The assay is described as follows: Inhibition of HUVEC 6-ketoPGF1a (PGI2) production by CLA in free fatty acid form. Particulars: CLA in the free fatty acid form. In kind it is cell-based. How it is done:
As a consequence, the patent disclosed the use of CLAs to inhibit platelet thromboxane formation or platelet aggregation. […] All of these studies relate to the use of conjugated linoleic acids in the free fatty acid form.
as §2

The mark [6] stands for this setting: experiment 1, 25 μM, 1 hour at 37° C.
Setting [7] is: 25 μM, 1 hour pretreatment, versus HSA control, Example 2.

`CCCCCCC=CC=CCCCCCCCC(=O)O` [9E, 11E-CLA, 9,11-octadecadienoic acid]: the inhibition at 25 µM in assay [1] (Homo sapiens, Platelet, 25 μM, 1 hour pretreatment, versus HSA control, Example 2, read-out: inhibition of TXB2 formation (FIG. 1)) is 37%.
For the compound `CCCCCCC=CC=CCCCCCCCC(=O)O` [9Z, 11Z-CLA, 9,11-octadecadienoic acid], the activity at 25 µM in assay [2] (Homo sapiens, Platelet, 1 hour, mean ± S.D. of three experiments, read-out: AA release, % of control, summary of experiments #1-3) was determined as 414 ± 155%; in assay [1] (Homo sapiens, Platelet, 25 μM, 1 hour, mean ± S.D. of three experiments, read-out: TXB2 formation, % of control, summary of experiments #1-3), 180 ± 30%. In assay [2] (setting [6]), this compound displayed an AA release of 27 µg/mL. For the same compound, in assay [1] (25 μM prelabeling, relative to HSA/platelet controls), the “fold increase in TXB2 formation” value was 2-4 fold and 2 fold. In addition, the “TXB2 Control (%)” value in assay [1] (25 μM, 1 hour at 37° C., single experiments No. 1-3, relative to HSA alone, listed as HSA + ZZ) was 146% and 192% and 203%. Moreover, in assay [1] (setting [7]), the “stimulation of platelet TXB2 production (FIG. 1)” value (from here on “stimulation … (FIG. 1)”) came out at 4 fold. For the same compound, the TXB2 formation in assay [1] (setting [6]) turned out to be 0.36 ng/mL. For the same compound, in assay [3], the “TXB2 formation Fold stimulation” value is 2.3 fold and 2.3 ± 1.0 (4) fold. The “HUVEC 6-ketoPGF1a formation fold-stimulation” value in assay [4] is reported as 8 fold; in assay [4] (listed as 9Z, 11Z), 8.1 ± 10 fold. Moreover, the “range of fold increase in endogenous 6-ketoPGF1a formation” value in assay [4] is recorded as 1.9-23 fold. Moreover, in assay [5], the “inhibition of HUVEC 6-ketoPGF1a / prostacyclin production” value was “but not 9Z, 11Z-CLA isomer, was an effective inhibitor”.
`CCCCCC=CC=CCCCCCCCCC(=O)O` [10E, 12Z-CLA, 10,12-octadecadienoic acid]: in assay [3], the “increase in formation and release of TXB2” value is on record as 30%; the “TXB2 formation Fold stimulation” value is 1.3 ± 0.41 (4) fold. In addition, in assay [4], the “HUVEC 6-ketoPGF1a formation fold-stimulation” value amounted to 3 fold and the “range of fold increase in endogenous 6-ketoPGF1a formation” value is given as 1.5-7.5 fold. Moreover, in assay [4] (listed as 10E, 12Z), the “HUVEC 6-ketoPGF1a formation fold-stimulation” value is 3.5 ± 2.7 fold. The “HUVEC 6-ketoPGF1a formation fold-stimulation” value in assay [4] (listed as 10E, 12Z isomer) is given as “not quite half as effective”. Also, the “inhibition of HUVEC 6-ketoPGF1a / prostacyclin production” value in assay [5] was “effective inhibitor”.
With `CCCCC/C=C\C/C=C\CCCCCCCC(=O)O` [LA, linoleic acid], the “stimulation … (FIG. 1)” value in assay [1] (setting [7]) was “did not show an appreciable effect”.
For `CCCCCCCCCCCCCCCCCC(=O)O` [SA, stearic acid, reference compound], the “stimulation … (FIG. 1)” value in assay [1] (setting [7]) is reported as “did not show an appreciable effect”.

(Values after patent publication US20040229950A1, “Method and composition with conjugated linoleic acid esters” (priority 2002, published 2004).)
